Columns and labels:
[1] = tested on: hPSC-derived endothelial progenitors (Passage 1 ECs); assay: Immunocytochemistry of Passage 1 ECs treated with Wnt ligands, CHIR or conditioned media; format: cell-based, human
Protocol: Collagen IV (Sigma-Aldrich) was dissolved in 0.5 mg/mL acetic acid to a final concentration of 1 mg/mL. Collagen IV-coated plates were prepared by diluting a volume of this stock solution 1:100 in water, adding the resulting solution to tissue culture plates, or #1.5 glass bottom plates (Cellvis, Sunnyvale, CA) for cells intended for confocal imaging (1 mL per well for 6-well plates, 0.5 mL per well for 12-well plates, 0.25 mL per well for 24-well plates), and incubating the plates for 1 h at RT. Collagen IV coating solution was removed and EPCs obtained as described above were suspended in hECSR medium and plated at approximately 3×10^4 cells/cm^2. In some experiments, cells were suspended in NR-CM or Astro-CM. In some experiments, ligands and small molecules were added to hECSR medium: CHIR 99021 (Tocris) was used at 4 μM except where indicated; DMSO (Sigma-Aldrich) was used as a vehicle control for CHIR; Wnt3a (R&D Systems) was used at 20 ng/mL; Wnt7a (Peprotech, Rocky Hill, NJ) was used at 50 ng/mL; Wnt7b (Abnova, Tapei, Taiwan) was used at 50 ng/mL; R-spondin 1 (Rspo1; Peprotech) was used at 50 ng/mL; doxycycline was used at 1, 2, or 4 μg/mL. The hECSR medium or CM, including any ligands or small molecules, was replaced every other day until confluent (typically 6 days). We denote this time point “Passage 1.”
Immunocytochemistry was performed in 24-well plates. Cells were washed once with 500 μL DPBS and fixed with 500 μL cold (−20° C.) methanol for 5 min, except cells intended for calponin/SM22a and CD31/Ki67 detection, which were fixed with 500 μL of 4% paraformaldehyde for 15 min. Cells were washed three times with 500 μL DPBS and blocked in 150 μL DPBS supplemented with 10% goat serum (Life Technologies) for 1 h at room temperature, except cells intended for calponin/SM22α detection, which were blocked and permeabilized in DPBS supplemented with 3% BSA and 0.1% Triton X-100, or cells intended for CD31/Ki67 detection, which were blocked and permeabilized in DPBS supplemented with 5% non-fat dry milk and 0.4% Triton X-100. Primary antibodies diluted in 150 μL of the above blocking solutions (see Table 6 for antibody information) were added to cells and incubated overnight at 4° C. on a rocking platform. Cells were washed three times with 500 μL DPBS. Secondary antibodies diluted in 150 μL of the above blocking solutions (see Table 6 for antibody information) were added to cells and incubated for 1 h at room temperature on a rocking platform, protected from light. Cells were washed three times with 500 μL DPBS, followed by 5 min incubation with 500 μL DPBS plus 4 μM Hoechst 33342 (Life Technologies). Images were acquired using an Eclipse Ti2-E epifluorescence microscope (Nikon, Tokyo, Japan) with a 20× objective or an A1R-Si+ confocal microscope (Nikon) with a 100× oil objective. Confocal images were acquired with 1 μm slice spacing.
Images were analyzed using FIJI (ImageJ) software. For epifluorescence images, 5 fields (20×) were analyzed per well, with 3-4 wells per treatment condition. For quantification of cell number, EC colonies were manually outlined, and the Analyze Particles function was used to estimate the number of nuclei within the EC colonies. Nuclei outside the EC colonies were manually counted. EC purity (% EC) was calculated as the number of nuclei within EC colonies relative to total nuclei. To estimate % GLUT-1^+ ECs, cells within the EC colonies with membrane-localized GLUT-1 immunoreactivity (e.g., arrowheads in FIG. 24B) were manually counted. To estimate % Ki67^+ ECs, cells within the EC colonies with at least one nuclear-localized Ki67 punctum were manually counted. For quantification of fluorescence intensity in epifluorescence images, EC colonies were manually outlined, and the Measure function was used to obtain the mean fluorescence intensity for each image channel (fluorophore). A cell-free area of the plate was similarly quantified for background subtraction. […]

[2] = tested on: Passage 3 ECs; assay: Transendothelial electrical resistance and sodium fluorescein permeability; format: cell-based, human; details: CHIR-treated vs DMSO-treated
[3] = 4 μM CHIR vs control, Passage 1 ECs

Structure (SMILES): Cc1c[nH]c(-c2cnc(NCCNc3ccc(C#N)cn3)nc2-c2ccc(Cl)cc2Cl)n1 [CHIR, CHIR 99021]
- caveolin-1 expression vs DMSO ([1]; 2 μM CHIR): did not lead to increased caveolin-1 expression
- claudin-5 or GLUT-1 expression vs control ([1]; 2 μM CHIR): did not elevate claudin-5 or GLUT-1 expression
- EC number and EC purity ([1]; 2 μM CHIR vs 4 μM CHIR): less effective in increasing EC number and EC purity than 4 μM CHIR
- increase in GLUT-1 abundance [1, 3]: ~30 fold
- increase in average claudin-5 abundance [1, 3]: approximately 1.5 fold
- increase in caveolin-1 [1, 3]: 4 fold
- ECs with induced GLUT-1 expression ([1]; 4 μM CHIR, Passage 1 ECs, IMR90-4): approximately 90%
- EC number, EC purity, claudin-5 expression ([1]; 6 μM CHIR vs 4 μM): did not improve EC number, EC purity, or claudin-5 expression
- GLUT-1 abundance ([1]; 6 μM CHIR vs 4 μM): further increased GLUT-1 abundance
- caveolin-1 abundance ([1]; 6 μM CHIR vs 4 μM): further increased caveolin-1 abundance
- increases in GLUT-1 abundance ([1]; CHIR treatment initiated immediately after MACS): 10- to 40 fold
- EC purity (proportion of ECs compared to SMLCs) ([1]; Passage 1 cultures, 6 days treatment): increasing EC purity to a level similar to that achieved with Wnt7a
- EC purity, EC number, caveolin-1 and GLUT-1 expression ([1]; additional hPSC line (WTC11)): conserved
- claudin-5 upregulation ([1]; additional hPSC line (WTC11)): not apparent
- reduction of PLVAP abundance ([1]; confocal microscopy, Passage 1 ECs, CHIR vs DMSO): approximately 20%
- transendothelial electrical resistance (TEER) [2]: elevated transendothelial electrical resistance
